Values after ≈ are worked out from the molar mass of the structure shown.
Assays:
Experiment in all cases: ≥ marks a high value that may be exact or a test limit, other limits are often not marked, values filed in µg/mL are converted to µM
[1] = tested on: Staphylococcus aureus NCTC 8325
[2] = tested on: Escherichia coli ATCC 25922
[3] = tested on: Pseudomonas aeruginosa
[4] = tested on: Bacillus subtilis 168
[5] = tested on: Staphylococcus aureus
[6] = tested on: Escherichia coli B
[7] = tested on: Staphylococcus aureus ATCC 25923
[8] = tested on: Staphylococcus aureus ATCC 29213
[9] = tested on: Staphylococcus epidermidis ATCC 12228
[10] = tested on: Salmonella enterica subsp. enterica serovar Typhimurium C77-31
[11] = tested on: Escherichia coli UB1005
[12] = tested on: Candida albicans ATCC 90028
[13] = tested on: Salmonella enterica subsp. enterica serovar Typhimurium ATCC 14028
[14] = tested on: Staphylococcus aureus ATCC 43300
[15] = tested on: Pseudomonas aeruginosa ATCC 27853
[16] = tested on: Klebsiella pneumoniae ATCC 13883
[17] = tested on: Klebsiella pneumoniae
[18] = tested on: Acinetobacter baumannii

MIC [1] [µM]	MIC [2] [µM]	MIC [3] [µM]	MIC [4] [µM]	MIC [5] [µM]	MIC [6] [µM]	MIC [7] [µM]	MIC [9] [µM]	MIC [10] [µM]	MIC [11] [µM]	Compound	further results
–	–	27.5 (≈ 53.4 µg/mL)	0.9 (≈ 1.75 µg/mL)	5 (≈ 9.71 µg/mL)	1.8 (≈ 3.5 µg/mL)	–	–	–	–	CC[C@H](C)[C@H](NC(=O)[C@H](CO)NC(=O)[C@H](CC(C)C)NC(=O)[C@H](Cc1ccccc1)NC(=O)CN)C(=O)N[C@@H](CC(C)C)C(=O)N[C@@H](CCCCN)C(=O)N[C@@H](CCCCN)C(=O)N[C@H](C(=O)N[C@@H](CC(C)C)C(=O)N[C@@H](CCCCN)C(=O)N[C@H](C(=O)N[C@@H](CCSC)C(=O)N[C@@H](C)C(=O)N[C@@H](Cc1cnc[nH]1)C(=O)N[C@@H](CCSC)C(=O)N[C@@H](CCCCN)C(N)=O)C(C)C)C(C)C [GFLSILKKVLKVMAHMK]	–
–	–	34.2 (≈ 49.6 µg/mL)	1.2 (≈ 1.74 µg/mL)	20 (≈ 29 µg/mL)	3.7 (≈ 5.36 µg/mL)	–	–	–	–	CC[C@H](C)[C@H](NC(=O)[C@H](Cc1cnc[nH]1)NC(=O)[C@H](CCCCN)NC(=O)[C@H](CC(C)C)NC(=O)[C@H](CC(C)C)NC(=O)[C@H](CO)NC(=O)[C@H](CCCCN)NC(=O)[C@H](Cc1c[nH]c2ccccc12)NC(=O)[C@H](CCCCN)NC(=O)CN)C(=O)N[C@@H](CC(C)C)C(=O)N[C@@H](CCCCN)C(N)=O [GKWKSLLKHILK]	–
–	–	13.5 (≈ 20.6 µg/mL)	1.5 (≈ 2.29 µg/mL)	10.1 (≈ 15.4 µg/mL)	3.9 (≈ 5.95 µg/mL)	–	–	–	–	CC[C@H](C)[C@H](NC(=O)[C@H](Cc1cnc[nH]1)NC(=O)[C@H](CCCCN)NC(=O)[C@H](CC(C)C)NC(=O)[C@H](Cc1c[nH]c2ccccc12)NC(=O)[C@H](CO)NC(=O)[C@H](CCSC)NC(=O)[C@H](Cc1c[nH]c2ccccc12)NC(=O)[C@H](CCCCN)NC(=O)CN)C(=O)N[C@@H](CC(C)C)C(=O)N[C@@H](CCCCN)C(N)=O [GKWMSWLKHILK]	–
–	–	56.7 (≈ 82.2 µg/mL)	2.2 (≈ 3.19 µg/mL)	25 (≈ 36.2 µg/mL)	8 (≈ 11.6 µg/mL)	–	–	–	–	CC[C@H](C)[C@H](NC(=O)[C@H](Cc1cnc[nH]1)NC(=O)[C@H](CCCCN)NC(=O)[C@H](CC(C)C)NC(=O)[C@H](CC(C)C)NC(=O)[C@H](CO)NC(=O)[C@H](CCC(N)=O)NC(=O)[C@H](Cc1c[nH]c2ccccc12)NC(=O)[C@H](CCCCN)NC(=O)CN)C(=O)N[C@@H](CC(C)C)C(=O)N[C@@H](CCCCN)C(N)=O [GKWQSLLKHILK]	–
–	4 (≈ 7.02 µg/mL)	–	–	–	–	16 (≈ 28.1 µg/mL)	8 (≈ 14 µg/mL)	16 (≈ 28.1 µg/mL)	4 (≈ 7.02 µg/mL)	CC(C)C[C@H](NC(=O)[C@H](Cc1c[nH]c2ccccc12)NC(=O)[C@H](CCCCN)NC(=O)[C@H](CCCN=C(N)N)NC(=O)[C@@H](NC(=O)[C@H](Cc1c[nH]c2ccccc12)NC(=O)[C@H](CCCCN)NC(=O)[C@H](CCCN=C(N)N)NC(=O)[C@H](CC(C)C)NC(=O)[C@H](Cc1c[nH]c2ccccc12)NC(=O)[C@@H](N)CCCN=C(N)N)[C@@H](C)O)C(=O)N[C@@H](CCCCN)C(N)=O [RWLRKWTRKWLK]	MIC [8]: 8 µM (≈ 14 µg/mL)

The remaining lines, values behind:

Compound	MIC [1] [µM]	MIC [2] [µM]	MIC [3] [µM]	MIC [4] [µM]	MIC [5] [µM]	MIC [6] [µM]	MIC [7] [µM]	MIC [9] [µM]	MIC [10] [µM]	MIC [11] [µM]	further results
CC[C@H](C)[C@@H]1NC(=O)[C@H](CC(C)C)NC(=O)[C@@H](NC(=O)[C@@H](NC(=O)[C@H](Cc2ccccc2)NC(=O)[C@H](CCCCN)NC(=O)[C@@H]2CCCN2C(=O)[C@@H](NC(=O)[C@H](CCSC)NC(=O)[C@H](CO)NC(=O)[C@H](C)NC(=O)[C@H](C)NC(=O)[C@H](CC(C)C)NC(=O)CNC(=O)[C@H](C)NC(=O)[C@H](CC(C)C)NC(=O)[C@H](CCSC)NC(=O)[C@@H]2CCCN2C(=O)[C@H](CC(C)C)NC(=O)[C@@H](N)Cc2ccccc2)C(C)C)C(C)C)CSSC[C@@H](C(=O)O)NC(=O)[C@H](CCCCN)NC(=O)[C@H](CCCCN)NC(=O)[C@H]([C@@H](C)O)NC1=O [FLPMLAGLAASMVPKFVCLITKKC]	8 (≈ 20.6 µg/mL)	16 (≈ 41.3 µg/mL)	–	–	–	–	–	–	–	–	–
CC[C@H](C)[C@H](NC(=O)CNC(=O)[C@H](CO)NC(=O)[C@H](CC(C)C)NC(=O)[C@H](CC(C)C)NC(=O)[C@H](CCCCN)NC(=O)CNC(=O)[C@@H](NC(=O)[C@@H](NC(=O)[C@@H]1CCCN1C(=O)[C@H](CC(C)C)NC(=O)[C@@H](NC(=O)[C@@H](NC(=O)[C@@H]1CCCN1C(=O)[C@H](CC(C)C)NC(=O)[C@@H](N)Cc1ccccc1)C(C)C)[C@@H](C)CC)C(C)C)[C@@H](C)CC)C(=O)N[C@@H](CC(C)C)C(N)=O [FLPVILPVIGKLLSGIL]	25 (≈ 44.8 µg/mL)	> 50	–	–	–	–	–	–	–	–	–
CC[C@H](C)[C@H](NC(=O)CN)C(=O)N[C@@H](Cc1c[nH]c2ccccc12)C(=O)N[C@@H](CC(=O)O)C(=O)N[C@H](C(=O)N[C@@H](CC(C)C)C(=O)N[C@@H](CCCCN)C(=O)N[C@@H](CC(N)=O)C(=O)N[C@H](C(=O)NCC(=O)N[C@@H](CCCCN)C(=O)N[C@@H](C)C(=O)N[C@H](C(=O)N[C@@H](CC(C)C)C(=O)NCC(=O)N[C@@H](CCCCN)C(=O)N[C@H](C(=O)N[C@@H](CC(C)C)C(=O)N[C@@H](CCC(=O)O)C(=O)N[C@@H](CC(N)=O)C(=O)N[C@H](C(N)=O)C(C)C)C(C)C)C(C)C)C(C)C)[C@@H](C)O [GIWDTLKNVGKAVLGKVLENV]	≥ 50	12.5 (≈ 28.2 µg/mL)	–	–	–	–	–	–	–	–	–
CC[C@H](C)[C@H](NC(=O)[C@H](Cc1c[nH]c2ccccc12)NC(=O)[C@H](CCCCN)NC(=O)[C@H](CC(C)C)NC(=O)[C@@H](NC(=O)[C@H](CCCCN)NC(=O)CNC(=O)[C@@H](NC(=O)[C@H](CCCCN)NC(=O)[C@H](CCCCN)NC(=O)[C@H](CC(C)C)NC(=O)[C@@H](NC(=O)[C@H](CCCCN)NC(=O)[C@H](CCCN=C(N)N)NC(=O)[C@@H](NC(=O)[C@@H](NC(=O)[C@H](CCCCN)NC(=O)[C@H](CCCN=C(N)N)NC(=O)[C@H](CC(C)C)NC(=O)[C@H](CCCN=C(N)N)NC(=O)[C@H](CCCN=C(N)N)NC(=O)[C@H](Cc1ccccc1)NC(=O)[C@@H](NC(=O)CN)C(C)C)C(C)C)[C@@H](C)O)C(C)C)[C@@H](C)CC)C(C)C)C(N)=O [GVFRRLRKVTRKVLKKIGKVLKWI]	–	4 (≈ 11.7 µg/mL)	–	–	–	–	4 (≈ 11.7 µg/mL)	2 (≈ 5.84 µg/mL)	4 (≈ 11.7 µg/mL)	4 (≈ 11.7 µg/mL)	MIC [8]: 4 µM (≈ 11.7 µg/mL)
CC[C@H](C)[C@H](NC(=O)[C@H](CC(C)C)NC(=O)[C@H](CC(C)C)NC(=O)[C@H](CC(N)=O)NC(=O)[C@H](CCCCN)NC(=O)[C@@H](NC(=O)[C@@H](NC(=O)CNC(=O)[C@H](CC(C)C)NC(=O)[C@@H](NC(=O)CN)C(C)C)[C@@H](C)O)C(C)C)C(=O)NCC(=O)N[C@@H](C)C(=O)NCC(=O)N[C@@H](CCCCN)C(=O)N[C@@H](CO)C(=O)N[C@@H](C)C(=O)N[C@@H](C)C(=O)N[C@@H](CCC(N)=O)C(=O)N[C@@H](CO)C(=O)N[C@H](C(=O)N[C@@H](CC(C)C)C(=O)N[C@@H](CCCCN)C(=O)N[C@H](C(=O)N[C@@H](CC(C)C)C(=O)N[C@@H](CO)C(=O)N[C@H]1CSSC[C@@H](C(=O)O)NC(=O)[C@H](CC(=O)O)NC(=O)[C@H](CC(N)=O)NC(=O)[C@H](CO)NC(=O)[C@H](CC(C)C)NC(=O)[C@H](CCCCN)NC1=O)[C@@H](C)O)C(C)C [GVLGTVKNLLIGAGKSAAQSVLKTLSCKLSNDC]	25 (≈ 82.2 µg/mL)	6 (≈ 19.7 µg/mL)	–	–	–	–	–	–	–	–	MIC [12]: ≥ 100 µM
CC[C@H](C)[C@H](N)C(=O)N[C@@H](CCCN=C(N)N)C(=O)N[C@H](C(=O)N[C@@H](CCCN=C(N)N)C(=O)N[C@H](C(=O)N[C@@H](CCCN=C(N)N)C(=O)N1CCC[C@H]1C(=O)N[C@H](C(=O)N[C@@H](CCCN=C(N)N)C(=O)N[C@H](C(=O)N[C@@H](CCCN=C(N)N)C(=O)N[C@H](C(=O)N[C@@H](CCCN=C(N)N)C(=O)N1CCC[C@H]1C(=O)O)[C@@H](C)CC)[C@@H](C)CC)[C@@H](C)CC)[C@@H](C)CC)[C@@H](C)CC [IRIRIRPIRIRIRP]	–	–	–	–	–	–	64 (≈ 117 µg/mL)	> 128	16 (≈ 29.3 µg/mL)	8 (≈ 14.6 µg/mL)	MIC [13]: 16 µM (≈ 29.3 µg/mL); MIC [14]: 64 µM (≈ 117 µg/mL); MIC [15]: 8 µM (≈ 14.6 µg/mL)
CC[C@H](C)[C@H](N)C(=O)N[C@@H](CCCN=C(N)N)C(=O)N[C@H](C(=O)N[C@@H](CCCN=C(N)N)C(=O)N1CCC[C@H]1C(=O)N[C@H](C(=O)N[C@@H](CCCN=C(N)N)C(=O)N[C@H](C(=O)N[C@@H](CCCN=C(N)N)C(=O)N1CCC[C@H]1C(=O)O)[C@@H](C)CC)[C@@H](C)CC)[C@@H](C)CC [IRIRPIRIRP]	–	> 128	–	–	–	–	> 128	> 128	≥ 128	≥ 128	MIC [13]: > 128 µM; MIC [14]: > 128 µM; MIC [8]: > 128 µM; MIC [15]: > 128 µM
CC(C)C[C@H](NC(=O)[C@H](CCCN=C(N)N)NC(=O)[C@H](C)NC(=O)[C@H](C)NC(=O)[C@H](Cc1c[nH]c2ccccc12)NC(=O)CNC(=O)[C@H](CCCN=C(N)N)NC(=O)[C@@H](N)CCCN=C(N)N)C(=O)N[C@@H](Cc1ccccc1)C(=O)N[C@@H](C)C(=O)N[C@@H](C)C(=O)N[C@@H](Cc1ccccc1)C(=O)NCC(=O)N[C@@H](CCCN=C(N)N)C(=O)N[C@@H](CCCN=C(N)N)C(N)=O [RRGWAARLFAAFGRR]	–	–	–	–	–	–	> 30	–	–	–	MIC [16]: 30 µM (≈ 53.7 µg/mL); MIC [17]: 1.2 µM (≈ 2.15 µg/mL); MIC [18]: 4.8 µM (≈ 8.59 µg/mL)

From DBAASP
